The subject of assay [1] is Streptococcus pneumoniae ATCC 51938. Particulars: S. pneumoniae ATCC 51938.
Assay [2] deals with Klebsiella pneumoniae (ATCC BAA-1705). Particulars: Table 16, Gram-negative panel.
For assay [3], the system named is Methicillin-resistant Staphylococcus aureus MRSA (ATCC BAA-1556). Particulars: MRSA ATCC BAA-1556.
The subject of assay [4] is B. cereus (ATCC-13061). As to the kind of experiment: Broad-spectrum activity against Gram-Positive bacteria (MIC). In kind it is cell-based. Details: unit not given here.
Assay [5] relates to E. coli (ATCC BAA-2452). Kind of assay: Broad-spectrum activity against Gram-Negative bacteria (MIC). Conditions: Table 16, Gram-negative panel. In kind it is cell-based.
In assay [6] the test system is Enterococcus faecium ATCC 27270. Particulars: E. faecium ATCC 27270.
Assay [7] concerns Enterococcus faecalis ATCC 29212. Conditions: E. faecalis ATCC 29212.
Assay [8] has as its system Escherichia coli (ATCC 25922). Particulars: E. coli ATCC 25922.
Assay [9] has as its system A. baumannii (ATCC BAA-1605). Kind of assay: Broad-spectrum activity against Gram-Negative bacteria (MIC). In kind it is cell-based. Particulars: Table 16, Gram-negative panel.
For assay [10], the system named is P. aeruginosa (ATCC 10145). Described as above. In kind it is cell-based. Particulars: Table 16, Gram-negative panel.
Assay [11] concerns Streptococcus pneumoniae ATCC 49619. Particulars: S. pneumoniae ATCC 49619.
For assay [12], the system named is Pseudomonas aeruginosa (ATCC 27883). Conditions: P. aeruginosa ATCC 27883.
The subject of assay [13] is Klebsiella pneumoniae ATCC 13883. Particulars: Table 16, Gram-negative panel.
For assay [14], the system named is P. aeruginosa (ATCC BAA-1744). Kind of assay: Broad-spectrum activity against Gram-Negative bacteria (MIC). In kind it is cell-based. Particulars: Table 16, Gram-negative panel.
The subject of assay [15] is Enterococcus faecium ATCC 700221. Particulars: E. faecium ATCC 700221.
Assay [16] deals with B. subtilis (ATCC-6633). As to the kind of experiment: Broad-spectrum activity against Gram-Positive bacteria (MIC). In kind it is cell-based. Details: unit not given here.
Assay [17] concerns S. aureus ATCC 29213. Conditions: S. aureus ATCC 29213.
Assay [18] concerns Enterococcus faecalis ATCC 51575. Particulars: E. faecalis ATCC 51575.

In the case of “c[Arg-Arg-Arg-Arg-Dip-dip-Dip] [IFX-061]”, the “Broad-spectrum activity S. pneumoniae (ATCC 51938)” value in assay [1] is 12.5. In assay [2], this substance had an MIC K. pneumonia (ATCC BAA-1705) of 25 µg/mL. Also, the “MIC MRSA ATCC BAA-1556” value in [3] worked out at 1.5 µg/mL. Moreover, the “Broad-spectrum activity B. cereus (ATCC-13061)” value in assay [4] is listed as 3.1. The MIC E. coli (ATCC BAA-2452) in assay [5] was determined as 12.5 µg/mL. The “Broad-spectrum activity E. faecium (ATCC 27270)” value in assay [6] was 3.1. In [7], the “Broad-spectrum activity E. faecalis (ATCC 29212)” value came to 6.2. Moreover, in assay [8], the “MIC E. coli ATCC 25922” value was determined as 12.5 µg/mL. In assay [9], the MIC A. baumannii (ATCC BAA-1605) came to 6.2 µg/mL. For the same substance, the MIC P. aeruginosa (ATCC 10145) in assay [10] was found to be 25 µg/mL. Moreover, the “Broad-spectrum activity S. pneumoniae (ATCC 49619)” value in [11] worked out at 50. Further, in [12], the “MIC P. aeruginosa ATCC 27883” value was 12.5 µg/mL. The substance also gave an MIC K. pneumonia (ATCC 13883) in [13] of 50 µg/mL. In assay [14], this substance registered an MIC P. aeruginosa (ATCC BAA-1744) of 12.5 µg/mL. Besides, the “Broad-spectrum activity E. faecium (ATCC 700221)” value in [15] was found to be 3.1. Moreover, in [16], the “Broad-spectrum activity B. subtilis (ATCC-6633)” value was found to be 1.5. In addition, the “MIC S. aureus ATCC 29213” value in assay [17] turned out to be 3.1 µg/mL. The “Broad-spectrum activity E. faecalis (ATCC 51575)” value in [18] is given as 12.5.

With “c[Arg-Arg-Arg-Arg-Dip-trp-Dip] [IFX-089]”, the “Broad-spectrum activity S. pneumoniae (ATCC 51938)” value in [1] is given as 25. The substance further showed an MIC K. pneumonia (ATCC BAA-1705) in assay [2] of 25 µg/mL. The “MIC MRSA ATCC BAA-1556” value in assay [3] worked out at 3.1 µg/mL. Also, the “Broad-spectrum activity B. cereus (ATCC-13061)” value in assay [4] is recorded as 12.5. This substance also yielded an MIC E. coli (ATCC BAA-2452) in [5] of 12.5 µg/mL. In addition, in [6], the “Broad-spectrum activity E. faecium (ATCC 27270)” value is reported as 6.2. Besides, in assay [7], the “Broad-spectrum activity E. faecalis (ATCC 29212)” value is recorded as 12.5. Moreover, the “MIC E. coli ATCC 25922” value in assay [8] is 12.5 µg/mL. Besides, the MIC A. baumannii (ATCC BAA-1605) in [9] came to 12.5 µg/mL. This substance gave an MIC P. aeruginosa (ATCC 10145) in assay [10] of 25 µg/mL. Besides, the “Broad-spectrum activity S. pneumoniae (ATCC 49619)” value in assay [11] is 50. The “MIC P. aeruginosa ATCC 27883” value in assay [12] came to 12.5 µg/mL. The substance also displayed an MIC K. pneumonia (ATCC 13883) in [13] of 50 µg/mL. In assay [14], this substance showed an MIC P. aeruginosa (ATCC BAA-1744) of 25 µg/mL. For the same substance, the “Broad-spectrum activity E. faecium (ATCC 700221)” value in assay [15] came to 12.5. In addition, the “Broad-spectrum activity B. subtilis (ATCC-6633)” value in assay [16] turned out to be 3.1. Further, the “MIC S. aureus ATCC 29213” value in assay [17] came to 3.1 µg/mL. For the same substance, the “Broad-spectrum activity E. faecalis (ATCC 51575)” value in assay [18] is given as 12.5.

As to “c[Arg-Arg-Arg-Arg-dip-Dip-Dip] [IFX-062]”, in assay [1], the “Broad-spectrum activity S. pneumoniae (ATCC 51938)” value is reported as 12.5. In addition, the MIC K. pneumonia (ATCC BAA-1705) in assay [2] is 12.5 µg/mL. For the same substance, the “MIC MRSA ATCC BAA-1556” value in assay [3] turned out to be 3.1 µg/mL. Besides, the “Broad-spectrum activity B. cereus (ATCC-13061)” value in assay [4] was found to be 3.1. In assay [5], this substance yielded an MIC E. coli (ATCC BAA-2452) of 6.2 µg/mL. In [6], the “Broad-spectrum activity E. faecium (ATCC 27270)” value is listed as 3.1. Also, in assay [7], the “Broad-spectrum activity E. faecalis (ATCC 29212)” value is recorded as 6.2. Further, the “MIC E. coli ATCC 25922” value in assay [8] worked out at 12.5 µg/mL. For the same substance, in assay [9], the MIC A. baumannii (ATCC BAA-1605) worked out at 6.2 µg/mL. Also, the MIC P. aeruginosa (ATCC 10145) in assay [10] was 25 µg/mL. In addition, in assay [11], the “Broad-spectrum activity S. pneumoniae (ATCC 49619)” value came to 50. The “MIC P. aeruginosa ATCC 27883” value in assay [12] came to 6.2 µg/mL. The MIC K. pneumonia (ATCC 13883) in assay [13] was found to be 50 µg/mL. Also, in assay [14], the MIC P. aeruginosa (ATCC BAA-1744) was 12.5 µg/mL. The “Broad-spectrum activity E. faecium (ATCC 700221)” value in assay [15] is 3.1. In assay [16], the “Broad-spectrum activity B. subtilis (ATCC-6633)” value amounted to 1.5. Besides, the “MIC S. aureus ATCC 29213” value in assay [17] was 3.1 µg/mL. For the same substance, the “Broad-spectrum activity E. faecalis (ATCC 51575)” value in [18] is on record as 12.5.

As for “c[Arg-Arg-Arg-Arg-dip-Trp-Dip] [IFX-090]”, the “Broad-spectrum activity S. pneumoniae (ATCC 51938)” value in assay [1] is 12.5. Besides, the MIC K. pneumonia (ATCC BAA-1705) in assay [2] was determined as 25 µg/mL. In addition, the “MIC MRSA ATCC BAA-1556” value in assay [3] was determined as 3.1 µg/mL. The “Broad-spectrum activity B. cereus (ATCC-13061)” value in [4] was 6.2. For the same substance, the MIC E. coli (ATCC BAA-2452) in assay [5] amounted to 12.5 µg/mL. Further, in [6], the “Broad-spectrum activity E. faecium (ATCC 27270)” value came out at 3.1. Moreover, the “Broad-spectrum activity E. faecalis (ATCC 29212)” value in assay [7] worked out at 6.2. For the same substance, the “MIC E. coli ATCC 25922” value in assay [8] was 12.5 µg/mL. The substance also returned an MIC A. baumannii (ATCC BAA-1605) in assay [9] of 12.5 µg/mL. This substance displayed an MIC P. aeruginosa (ATCC 10145) in assay [10] of 25 µg/mL. The “Broad-spectrum activity S. pneumoniae (ATCC 49619)” value in [11] amounted to 25. In addition, the “MIC P. aeruginosa ATCC 27883” value in assay [12] was 12.5 µg/mL. The substance also registered an MIC K. pneumonia (ATCC 13883) in assay [13] of 50 µg/mL. Also, the MIC P. aeruginosa (ATCC BAA-1744) in [14] was 25 µg/mL. Besides, in assay [15], the “Broad-spectrum activity E. faecium (ATCC 700221)” value was 6.2. The “Broad-spectrum activity B. subtilis (ATCC-6633)” value in assay [16] was 1.5. Besides, the “MIC S. aureus ATCC 29213” value in [17] turned out to be 3.1 µg/mL. Besides, in assay [18], the “Broad-spectrum activity E. faecalis (ATCC 51575)” value was 12.5.

The record behind these values is patent US20220289794A1, “SYNTHETIC ANTIMICROBIAL PEPTIDES” (priority 2019, published 2022).
